Results published in patent publication US12698265B2, “Plant extracts enriched with ipolamiide derivatives as immunosuppressants for treating immunological disorders” (priority 2017, dated 2026).

Legend:
[1] = system: CD8+ T cells activated by αCD3/CD28; assay: Proliferation of CD8+ T cells activated by αCD3/CD28 (BrdU incorporation, Biotrak ELISA); type: cell-based; settings: 3, 10 and 30 μM (extract concentration expressed in ipolamiide); human CD8+ T cells from PBMCs; FIG. 2A
Experimental: (§1) FIG. 2—Effect of the aqueous extract of Stachytarpheta cayennensis (3, 10 and 30 μM, concentration expressed in ipolamiide) and isolated ipolamiide (3, 10 and 30 μM) on the proliferation of CD8+ T cells activated by αCD3/CD28 (A) and IFNγ production (B). The effect of the pool of compounds (IV to VIII) and the five novel isolated compounds (IV to VIII) generated after the acid hydrolysis of ipolamiide (30 μM) was also evaluated in the same experiments, proliferation of CD8+ T cells activated by αCD3/CD28 (C) and IFNγ production (D). Tacrolimus (0.5 μM) was used as the positive control for all experiments. The data are the mean±SD of three replicates.
(§2) The extract of Stachytarpheta cayennensis, ipolamiide and derivatives were studied in an experimental in vitro immunological model involving CD8+ T cells and IFNγ. […]
(§3) Peripheral blood mononuclear cells (PBMCs) from healthy volunteers were isolated from leukocyte layers by Ficoll-Hystopaque centrifugation. […] Specifically, it was evaluated the incorporation of BrdU through the Biotrak ELISA System (GE Healthcare, RPN250) per the manufacturer's instructions. The methodology for quantification of interferon gamma comprised the use of the Human IFNγ ELISA Ready-SET-Go kit (eBiosciences 88-7316-88) and followed the manufacturer's instructions. […]

IFNγ = IFNγ production by αCD3/CD28-activated CD8+ T cells (Human IFNγ ELISA); type: cell-based; settings: 3, 10 and 30 μM; human CD8+ T cells activated with αCD3/CD28; FIG. 2B
Experimental: as §1, §2, §3

**Q.** What does the source list for `COC(=O)C1=CO[C@@H](O[C@@H]2O[C@H](CO)[C@@H](O)[C@H](O)[C@H]2O)[C@@H]2[C@@](C)(O)CC[C@]12O` [ipolamiide]?
**A.** activation / proliferation of CD8+ T cells induced by αCD3/CD28 [1]: had no effect; secretion of IFNγ (IFNγ): had no effect
